In patent publication US10471082B2, “Flavivirus protease inhibitors” (priority 2012, dated 2019):

How the values were obtained:
[1] = Cell viability (CellTiter Glo) in BHK21-DENV2 cells; format: cell-based; conditions: hamster, ATP production
Description: (§1) Both drug efficacy and cytotoxicity were measured using the same experimental plate. Prior to compound treatment, BHK21-DENV2 or Vero-WNV cells at […] were plated in 96-well plates with each well containing 10^4 cells. After 24 h incubation, the medium was replaced with 100 μL fresh medium containing different compound concentrations (0.5, 1, 2, 5, 10, and 25 μM) in triplicate wells. Cells were incubated again for 24 h. Cells were then washed with PBS and the luminescence signal from Renilla luciferase activity was read using the Renilla luciferase assay kit (Promega Corp; Fitchburg, Wis.) using a luminometer (Berthold Technologies, Inc.; Oak Ridge, Tenn.). Cell viability (CC50) was measured as amount of ATP production in viable (live) cells using a chemiluminescence detection method (CellTiter Glo kit from Promega Corp) using the Model LB960 luminometer (Berthold Technologies). The EC50 and CC50 values of selected compounds were calculated similar to IC50s using GraphPad Prism v5. Experiments were done in duplicates.
Following a similar protocol, the EC50 and CC50 values of Compounds III and V for inhibition of DENV2 replicon-expressing BHK21 cells and cell viability of those cells treated with Compounds III and V were determined.

[2] = biological target: T1, DENV-2 protease (Dengue virus type 2, UniProt P14340); assay: In vitro protease assay, DENV-2 NS2B-NS3pro; format: biochemical, Dengue virus serotype 2; conditions: for inhibition at 10 µM: 10 μM inhibitor, read-out: % Inhib. DENV 2 Protease at 10 μM; for inhibition at 25 µM: 25 μM inhibitor, read-out: % Inhib. DENV 2 Protease at 25 μM; for IC50: substrate Bz-Nle-Lys-Arg-Arg-AMC, triplicate, read-out: IC50 DENV2
T1 construct: expression plasmids pQE30-NS2BH(QR)-NS3pro and WNV clone 107, respectively; made in house; host or cells: E. coli TOP10F' cells
T1 sequence (P14340 1476-1653): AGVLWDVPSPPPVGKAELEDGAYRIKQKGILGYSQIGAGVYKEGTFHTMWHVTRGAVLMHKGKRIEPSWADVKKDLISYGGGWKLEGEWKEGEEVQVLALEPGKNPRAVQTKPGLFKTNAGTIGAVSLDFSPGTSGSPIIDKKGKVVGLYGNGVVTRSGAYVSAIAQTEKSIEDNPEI
Description: (§2) DENV-2 and WNV proteases were expressed from 2 L cultures of TOP10F′ cells (Invitrogen; Carlsbad, Calif.) transformed with expression plasmids pQE30-NS2BH(QR)-NS3pro and WNV clone 107, respectively. Cultures were grown in LB medium supplemented with ampicillin (100 μg/mL) and 0.1% glucose at 37° C. until the OD600 reached 0.6-0.7. The medium was then replaced with fresh LB-ampicillin with 1 mM IPTG. Expression was done at 20° C. for 16 h. Cells were then pelleted and either frozen or used immediately for purification using a Talon metal affinity resin (Clontech; Mountain View, Calif.).
(§3) A reaction mixture was prepared containing 200 mM Tris pH 9.5, 30% glycerol, 0.1% CHAPS detergent (to prevent non-specific aggregation of compounds), 50 nM DENV2QRpro enzyme and 10 μM Bz-Nle-Lys-Arg-Arg-AMC in each 30 μL reaction in duplicate 384-well plates. Aprotinin (2 μM) was used as a positive control. Compounds which inhibited the cleavage of the substrate by at least 50% were considered as positive hits. From the list of positive compounds, the highest scoring hits were selected for further analysis. […] Out of the 29 compounds, only 22 dissolved in DMSO at 5 mM. The activities of the 22 compounds were tested against DENV-2 and WNV proteases at 10 and 25 μM of the inhibitor concentration. […] A control containing only 2% DMSO and the substrate was used to achieve the minimum value of relative fluorescence units (RFU) for background subtraction. Compounds that reduced the protease activity by ≥70% were selected for further analysis.
(§4) Compound I, Compound II, Compound III, Compound IV, Compound V, Compound VI, and Compound VII were analyzed by in vitro protease assays. The compounds were tested for DENV-2 and WNV protease inhibition activity. All assays were done in triplicate in black 96-well plates. Protease activity experiments were performed in vitro using purified viral protease NS2B-N53-pro from DENV-2 or WNV. The reaction mixture of 100 μL/well contained 200 mM Tris pH 9.5, 30% glycerol, 27 nM WNV, 2% DMSO and fluorogenic tetra-peptide substrate Bz-Nle-Lys-Arg-Arg-AMC at concentrations that varied (0.05, 0.1, 0.5, 1, 2, 5, 10, and 25 μM). The percent activities after 30 min versus inhibitor concentration were plotted in GraphPad Prism v5.04 using the four-parameter nonlinear regression (Hill slope method).
(§5) In all assays, the inhibitor-enzyme complex was allowed to form by pre-incubation for 15 min at room temperature (RT) before addition of the substrate. After 5 min incubation, reactions were monitored by the release of free AMC, every 1.5 min for 30 min. The fluorescence emission was recorded at 465 nm following excitation at 385 nm using the Spectra Max Gemini EM (Molecular Devices; Silicon Valley, Calif.). The relative fluorescence units (RFU) were converted to absolute AMC product concentrations using Excel, where the data were transformed using the slope from the linear regression of the AMC calibration curve generated from the fluorescence values versus micromolar (μM) concentrations of free AMC. RFUs, obtained in a standard assay in the absence of inhibitors, were taken as 100% protease activity (or 0% inhibition), the background value (no protease) as 0% activity (or 100% inhibition). Kinetic values were determined using Microsoft Excel and GraphPad Prism 5 (La Jolla, Calif.).

[3] = biological target: T2, WNV protease (West Nile virus, UniProt Q9Q6P4); assay: In vitro protease assay, WNV NS2B-NS3pro; format: biochemical; conditions: for inhibition at 10 µM: read-out: % Inhib. WNV Protease at 10 μM; for inhibition at 25 µM: read-out: % Inhib. WNV Protease at 25 μM
T2 construct: purified viral protease NS2B-N53-pro from DENV-2 or WNV; made in house; host or cells: E. coli TOP10F' cells
T2 sequence (Q9Q6P4 1506-1683): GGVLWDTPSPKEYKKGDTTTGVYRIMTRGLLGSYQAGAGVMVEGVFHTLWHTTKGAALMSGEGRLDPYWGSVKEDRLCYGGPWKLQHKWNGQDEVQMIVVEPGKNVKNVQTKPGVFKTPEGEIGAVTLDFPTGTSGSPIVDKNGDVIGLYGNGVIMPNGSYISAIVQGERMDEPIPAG
T2 sequence (Q9Q6P4 1375-1505): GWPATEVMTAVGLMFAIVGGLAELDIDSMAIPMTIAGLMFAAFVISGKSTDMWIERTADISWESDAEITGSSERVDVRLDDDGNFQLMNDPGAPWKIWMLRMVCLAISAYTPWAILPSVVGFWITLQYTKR
Description: as §2, §3, §4, §5

[4] = biological target: DENV-3 protease (Dengue virus type 3, UniProt P27915); assay: DENV-3 protease inhibition; format: biochemical, Dengue virus serotype 3
Chain of DENV-3 protease (P27915 1474-1651): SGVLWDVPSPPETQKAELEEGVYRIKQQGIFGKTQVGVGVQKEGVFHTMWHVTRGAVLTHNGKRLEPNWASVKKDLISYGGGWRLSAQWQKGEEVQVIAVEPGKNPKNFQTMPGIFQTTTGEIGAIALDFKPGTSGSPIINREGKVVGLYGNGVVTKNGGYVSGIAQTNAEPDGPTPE
Chain of DENV-3 protease (P27915 1392-1438): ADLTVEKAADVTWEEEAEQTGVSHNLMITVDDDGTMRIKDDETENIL

[5] = biological target: DENV-1 protease (Dengue virus type 1, UniProt P17763); assay: DENV-1 protease inhibition; format: biochemical, Dengue virus serotype 1
Chain of DENV-1 protease (P17763 1394-1440): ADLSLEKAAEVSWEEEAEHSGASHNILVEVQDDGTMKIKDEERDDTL
Chain of DENV-1 protease (P17763 1476-1653): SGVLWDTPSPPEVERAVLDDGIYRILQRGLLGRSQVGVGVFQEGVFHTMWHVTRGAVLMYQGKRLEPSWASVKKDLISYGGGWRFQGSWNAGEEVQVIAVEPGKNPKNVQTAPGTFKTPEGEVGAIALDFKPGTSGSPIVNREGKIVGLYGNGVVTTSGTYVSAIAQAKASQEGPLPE

[6] = test system: WNV replicon-expressing Vero cells; assay: WNV replicon assay (Renilla luciferase); format: cell-based; conditions: West Nile virus, 24 h
Text: (§6) The efficacy of the compounds was also examined in cell-based assays performed in mammalian cells. Mammalian cells are the host for replication of the virus; a compound added to the growth medium of the mammalian cell in which a replicon RNA or dengue virus is replicating, the compound of interest could permeate the cell and interfere with the replication process. If there is a quantitative read-out of replication efficiency, the potency of the inhibitor compound could be evaluated in a quantifiable manner. There are two types of quantifiable assays available both employing mammalian cells; the first is the Baby Hamster Kidney (BHK) or monkey kidney (Vero) cells harboring DENV-2 or WNV replicon RNA, respectively, in a continuously replicating state and these are “stable replicon-expressing” cells. […] The inhibition of infectivity of the virus by the compound is measured by the extent of reduction of the titer of virus determined by plaque assay.
(§7) Both drug efficacy and cytotoxicity were measured using the same experimental plate. […] Cells were then washed with PBS and the luminescence signal from Renilla luciferase activity was read using the Renilla luciferase assay kit (Promega Corp; Fitchburg, Wis.) using a luminometer (Berthold Technologies, Inc.; Oak Ridge, Tenn.). […] The EC50 and CC50 values of selected compounds were calculated similar to IC50s using GraphPad Prism v5. […]

[7] = test system: Dengue virus; assay: Plaque assay for anti-dengue viral activity; format: cell-based; conditions: for virus titer: BHK 21 cells, MOI 1, 48 h, no-treatment 2×10^5; for EC50: Dengue virus, read-out: EC50 in virus replication
Text: The efficacy of the compounds was also examined in cell-based assays performed in mammalian cells. Mammalian cells are the host for replication of the virus; a compound added to the growth medium of the mammalian cell in which a replicon RNA or dengue virus is replicating, the compound of interest could permeate the cell and interfere with the replication process. If there is a quantitative read-out of replication efficiency, the potency of the inhibitor compound could be evaluated in a quantifiable manner. There are two types of quantifiable assays available both employing mammalian cells; the first is the Baby Hamster Kidney (BHK) or monkey kidney (Vero) cells harboring DENV-2 or WNV replicon RNA, respectively, in a continuously replicating state and these are “stable replicon-expressing” cells. The second assay is infectivity assays in which mammalian cells are infected with DENV and the compound of interest is added at various concentrations and incubated. The inhibition of infectivity of the virus by the compound is measured by the extent of reduction of the titer of virus determined by plaque assay.
BHK 21 cells (1×10^5) were plated onto each well of 12 well-cell culture plate. […] One hour later, the Dengue virus was added (MOI:1). After an additional 48 hours, the supernatant was collected and tested by the plaque assay.
LLC-MK2 cells were plated at 2.5×10^5 cells per well in 6-well plates containing 2 ml culture medium and incubated overnight. Serially diluted supernatants from BHK21 cells treated with compounds at different concentrations as described above were incubated with cells in paired wells of six-well plates for 2 h. Cells were overlaid with 1× media containing 0.5% Sea-Kem GTG agarose (FMC Bioproducts; Philadelphia, Pa.) and were incubated for 7 days at 37° C. and visualized by staining with 0.01% neutral red solution overnight.

[8] = test system: DENV2 replicon-expressing BHK21 cells; assay: DENV2 replicon assay (Renilla luciferase); format: cell-based; conditions: Dengue virus, DENV2, BHK-21
Text: as §6, §7

[9] = Cell viability (CellTiter Glo) in Vero-WNV cells; format: cell-based; conditions: monkey, ATP production
Description: as §1

[10] = biological target: DENV-4 protease (Dengue virus type 4, UniProt P09866); assay: DENV-4 protease inhibition; format: biochemical, Dengue virus serotype 4
Chain of DENV-4 protease (P09866 1475-1652): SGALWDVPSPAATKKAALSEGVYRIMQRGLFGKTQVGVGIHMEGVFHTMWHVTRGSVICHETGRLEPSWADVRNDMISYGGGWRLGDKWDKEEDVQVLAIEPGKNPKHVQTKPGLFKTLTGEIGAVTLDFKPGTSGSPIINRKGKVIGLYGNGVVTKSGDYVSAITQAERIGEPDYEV
Chain of DENV-4 protease (P09866 1393-1439): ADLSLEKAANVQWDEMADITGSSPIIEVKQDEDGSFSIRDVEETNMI

Row | SMILES | inhibition at 10 µM [2] [%] | inhibition at 25 µM [2] [%] | IC50 [2] [µM] | IC50 [3] [µM] | inhibition at 10 µM [3] [%] | inhibition at 25 µM [3] [%] | EC50 [7] [µM] | also measured
1 | Cc1ccc(C2=NC(=O)/C(=C/c3cc(O)c(O)c(Br)c3)S2)cc1 [Compound III] | 96 | 94 | 3.4 | 1.3 | 98 | 98 | < 10 | CC50 at 24 h [1]: 407 µM; IC50 [4]: 4.8 ± 1.1 µM; IC50 [5]: 5.99 ± 1.4 µM; EC50 [6]: 3.7 µM; fold reduction of virus titer ([7]; 10 μM compound): 3.3 fold; virus titer ([7]; 10 μM compound): 6×10^4 PFU/ml; fold reduction of virus titer ([7]; 15 μM compound): 5 fold; virus titer ([7]; 15 μM compound): 4×10^4 PFU/ml; fold reduction of virus titer ([7]; 20 μM compound): 100 fold; virus titer ([7]; 20 μM compound): 2×10^3 PFU/ml; EC50 [8]: 7.2 µM; CC50 at 24 h [9]: 130 µM; IC50 [10]: 3.92 ± 0.05 µM
2 | Cc1sc2nc(SCC(=O)c3ccc(O)c(O)c3)[nH]c(=O)c2c1C [Compound II] | 57 | 92 | 8.8 | 9.7 | 45 | 92 | – | inhibition of the virus titer ([7]; 20 μM compound): did not show a significant inhibition
3 | O=c1c(Oc2ccccc2)c(C(F)(F)F)oc2c(O)c(O)ccc12 [Compound IV] | 63 | 82 | 8.5 | 6.7 | 71 | 95 | < 20 | –
4 | COCc1cc(C)nc(SCC(=O)c2ccc(O)c(O)c2)c1C#N [Compound I] | 51 | 89 | 10.5 | 9 | 54 | 95 | – | –
5 | Cc1ccc(C(=O)c2cc(O)c(O)c([N+](=O)[O-])c2)cc1 [Compound VI, Tolcapone, reference compound] | 90 | 92 | 0.758 | 0.68 | 99 | 67 | < 5 | fold reduction of virus titer ([7]; 5 μM compound): greater than 100 fold
6 | O=C(OC[C@H]1OC(OC(=O)c2cc(O)c(O)c(OC(=O)c3cc(O)c(O)c(O)c3)c2)C(OC(=O)c2cc(O)c(O)c(OC(=O)c3cc(O)c(O)c(O)c3)c2)[C@@H](OC(=O)c2cc(O)c(O)c(OC(=O)c3cc(O)c(O)c(O)c3)c2)C1OC(=O)c1cc(O)c(O)c(OC(=O)c2cc(O)c(O)c(O)c2)c1)c1cc(O)c(O)c(OC(=O)c2cc(O)c(O)c(O)c2)c1 (some centres unmarked) [Compound VII, Tannic acid, reference compound] | 99 | 101 | 0.768 | 0.312 | 98 | 96 | < 5 | –
7 | CCOC(=O)c1oc2c(O)c(O)ccc2c(=O)c1-c1cnn(-c2ccccc2)c1 [Compound V] | 75 | 86 | 4.8 | 4.3 | 75 | 95 | – | CC50 at 24 h [1]: 202 µM; IC50 [4]: 5 ± 1.4 µM; IC50 [5]: 6.4 ± 1.2 µM; EC50 [6]: 9.7 µM; EC50 [8]: 11.7 µM; CC50 at 24 h [9]: 168 µM; IC50 [10]: 5.32 ± 0.6 µM
